PMC6143625, “A high throughput screen for next-generation leads targeting malaria parasite transmission” (Nature Communications, 2018)

Legend:
HepG2 human cells = tested on: HepG2 human cells; set-up: method as in http://dx.doi.org/10.6019/CHEMBL3507680; conditions: ref http://dx.doi.org/10.6019/CHEMBL3507680; cited from earlier work
[1] = tested on: P. falciparum 3D7 asexual blood stages; assay: Whole-cell time extended asexual growth assay (pLDH); type: cell-based; conditions: Plasmodium falciparum, 72 h; for IC50: dose response retest, read-out: IC50 (µM) Asex stages; for inhibition at 2 µM: primary screen, read-out: %Inh Asex stages @2uM
Method: Asexual activity was assayed via Plasmodium lactate dehydrogenase activity (pLDH), a surrogate of asexual parasite growth. […] 2 µM artesunate and DMSO were used as the positive and negative controls, respectively. […] After plate mixing, NBT reduction was measured by absorbance at 650 nm using Envision (Perkin Elmer).

| SMILES | %Inh HepG2 @10uM (HepG2 human cells) | IC50 [1] | inhibition at 2 µM [1] |
| --- | --- | --- | --- |
| COc1cccc(CNc2cc(C)nc(-c3ccncc3)n2)c1OC [DDD01073393] | -6.44% | 4.85 µM | 40.5% |
| O=C(c1ccccc1)C1CCN(Cc2cc3c(cc2O)CCC3)CC1 [DDD01073482] | 33.89% | 1.75 µM | 48.9% |
| CC1CCN(c2ccnc3ccc(Br)cc23)CC1 [DDD01075547] | 2.00% | 9.1 µM | 35.9% |
| Cc1cnc(NCc2ccc(S(=O)(=O)N(C)C(C)C)cc2)nc1C [DDD01077176] | -11.10% | 3.18 µM | 42.2% |
| N#Cc1c(Cl)nsc1NCCCN1C(=O)COc2ccccc21 [DDD01077687] | 8.75% | 3.47 µM | 39.1% |
| COc1ccc(Oc2cc(CN)ccn2)cc1 [DDD01078308] | 2.32% | 6.7 µM | 30.1% |
| NC(=O)CN1CCC(Nc2ccnc3ccc(Cl)cc23)CC1 [DDD01078433] | -1.05% | 1.24 µM | 82% |
| Cc1cc(=O)n2nc(Oc3ccc(Cl)c(C)c3)sc2n1 [DDD01078480] | -6.83% | 3.34 µM | 42% |
| COc1c(C)cnc(CN(C)C2CCCCC2)c1C [DDD01078822] | 8.25% | 5.74 µM | 35.1% |
| CCOCc1ccc(CNC2=NCCCN2)cc1.I [DDD01079448] | -2.49% | 1.58 µM | 40.1% |
| Cc1ccc(CNC2CCN(CCc3ccncc3)CC2)cc1C [DDD01080013] | 1.32% | 1.81 µM | 77% |
| COc1cccc(CN(C)C(=O)CN2CC(n3nc(C)cc3C)C2)c1 [DDD01080719] | -1.82% | 2.29 µM | 49.9% |
| CCS(=O)(=O)N1CCC2(CC1)CN(CC1CCOC1)c1ccccc12.O=C(O)C(F)(F)F (stereo not drawn) [DDD01082339] | 25.95% | 7.55 µM | 46% |
| O=C(O)C(F)(F)F.c1ccc(CN2CCC3(CC2)CC(Nc2nccs2)CO3)nc1 (stereo not drawn) [DDD01083119] | -8.19% | 7.18 µM | 37.5% |
| CC(C)N(C)Cc1cnc2n1CCN(C(=O)NC1CCCC1)C2.O=C(O)C(F)(F)F [DDD01085014] | -9.47% | 4.32 µM | 42.5% |
| O=C(NCCCN1CCOCC1)c1ccn(-c2ccc3ccccn23)n1.O=C(O)C(F)(F)F [DDD01085308] | 23.54% | 2.53 µM | 50.4% |
| c1cc(-c2n[nH]cc2-c2ccnc(N3CCCC3)n2)ccn1 [DDD01235828] | -2.36% | 0.201 µM | 46.4% |
| COc1ccc2[nH]cc(-c3ccnc(NC4CCCC4)n3)c2c1 [DDD01235847] | -0.78% | 3.02 µM | 33.7% |
| CCCn1cc(-c2ccnc(NC3CCc4ccccc4C3)n2)c(C)n1 (stereo not drawn) [DDD01243522] | 19.33% | 1.16 µM | 31.2% |
| COc1cccc(CN2CC(=O)N(c3ccccc3C)CC2C)c1OC (stereo not drawn) [DDD01244654] | -6.78% | 3.87 µM | 51.8% |
| CNc1nc(C)cc(NCc2cc(C)cc3c(C)c(C)[nH]c23)n1 [DDD01244907] | 98.78% | 1.3 µM | 91.8% |
| CC1CCCCN1C(=O)c1coc(COc2cccc3cnccc23)n1 (stereo not drawn) [DDD01245028] | -6.78% | 1.56 µM | 66.8% |
| NCC1Cc2cc(-c3nccc(N4CCC(O)CC4)n3)cc(Cl)c2O1 (stereo not drawn) [DDD01245918] | 5.41% | 4.85 µM | 72.6% |
| O=C(O)C1CC2(CCN(c3nccc4ccccc34)CC2)CN1 (stereo not drawn) [DDD01246093] | 9.49% | 3.51 µM | 35.8% |
